In patent publication US10750743B2, “Pyridazinone herbicides” (E.I. DU PONT DE NEMOURS AND COMPANY, priority 2015, dated 2020):

Tests used:
Format in all cases: in vivo
[1] = system: barnyardgrass (Echinochloa crus-galli); test: Test A preemergence, directed soil spray, visual injury rating; details: 0 is no effect, 100 is complete control
Procedure, shortened: (§1)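 Injury ratings, 0 (no effect) to 100 (complete control), were scored visually versus untreated plants roughly 10 d after treatment under greenhouse conditions. Treatments used surfactant-containing solvent formulations, sprayed onto soil preemergence or onto one- to two-leaf seedlings (2-10 cm) postemergence, grown in a loam-sand mix.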

[2] = system: kochia (Kochia scoparia); test: as above; details: 0 is no effect, 100 is complete control
Procedure, shortened: as §1

[3] = system: foxtail, giant (giant foxtail, Setaria faberii); test: as above; details: 0 is no effect, 100 is complete control
Procedure, shortened: as §1

[4] = system: pigweed (Amaranthus retroflexus); test: as above; details: 0 is no effect, 100 is complete control
Procedure, shortened: as §1

[5] = system: ragweed (common ragweed, Ambrosia elatior); test: as above; details: 0 is no effect, 100 is complete control
Procedure, shortened: as §1

[6] = system: ryegrass, It. (Italian ryegrass, Lolium multiflorum); test: as above; details: 0 is no effect, 100 is complete control
Procedure, shortened: as §1

[7] = system: ducksalad (Heteranthera limosa); test: Test B flooded paddy test, visual rating; details: Flood, 250 g ai/ha, applied to paddy water, rated after 13 to 15 d
Procedure, shortened: (§2)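 Ratings use a 0-100 visual scale, where 100 is complete control, and compare treated plants with controls after 13 to 15 d of greenhouse growth. Compound went straight into paddy water kept 3 cm over the soil surface, applied to seedlings at the 2-leaf stage.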

[8] = system: barnyardgrass (Echinochloa crus-galli); test: Test B flooded paddy test, visual rating; details: Flood, 250 g ai/ha, applied to paddy water, rated after 13 to 15 d
Procedure, shortened: as §2

[9] = system: rice (Oryza sativa); test: Test B flooded paddy test, visual rating; details: Flood, 250 g ai/ha, applied to paddy water, rated after 13 to 15 d
Procedure, shortened: as §2

[10] = system: sedge, umbrella (small-flower umbrella sedge, Cyperus difformis); test: Test B flooded paddy test, visual rating; details: Flood, 250 g ai/ha, applied to paddy water, rated after 13 to 15 d
Procedure, shortened: as §2

[11] = system: galium (catchweed bedstraw, Galium aparine); test: Test A postemergence application, visual injury rating; details: 0 to 100 scale, 0 no effect, 100 complete control
Procedure, shortened: as §1

[12] = system: barnyardgrass (Echinochloa crus-galli); test: as above; details: 0 to 100 scale, 0 no effect, 100 complete control
Procedure, shortened: as §1

[13] = system: kochia (Kochia scoparia); test: as above; details: 0 to 100 scale, 0 no effect, 100 complete control
Procedure, shortened: as §1

[14] = system: foxtail, giant (giant foxtail, Setaria faberii); test: as above; details: 0 to 100 scale, 0 no effect, 100 complete control
Procedure, shortened: as §1

[15] = system: pigweed (Amaranthus retroflexus); test: as above; details: 0 to 100 scale, 0 no effect, 100 complete control
Procedure, shortened: as §1

[16] = system: corn (Zea mays); test: as above; details: 0 to 100 scale, 0 no effect, 100 complete control
Procedure, shortened: as §1

[17] = system: ragweed (common ragweed, Ambrosia elatior); test: as above; details: 0 to 100 scale, 0 no effect, 100 complete control
Procedure, shortened: as §1

[18] = system: blackgrass (Alopecurus myosuroides); test: as above; details: 0 to 100 scale, 0 no effect, 100 complete control
Procedure, shortened: as §1

[19] = system: wheat (Triticum aestivum); test: as above; details: 0 to 100 scale, 0 no effect, 100 complete control
Procedure, shortened: as §1

[20] = system: ryegrass, It. (Italian ryegrass, Lolium multiflorum); test: as above; details: 0 to 100 scale, 0 no effect, 100 complete control
Procedure, shortened: as §1

## COC(=O)Oc1c(C)nn(C)c(=O)c1-c1ccc(Cl)c2oc(C)cc12 [Compound 53]
[1]; 31 g ai/ha
  Plant response rating (0 to 100 scale), Barnyardgrass: 0
[1]; 125 g ai/ha
  Plant response rating (0 to 100 scale), Barnyardgrass: 30
[2]; 31 g ai/ha
  Plant response rating (0 to 100 scale), Kochia: 0
[2]; 125 g ai/ha
  Plant response rating (0 to 100 scale), Kochia: 0
[3]; 31 g ai/ha
  Plant response rating (0 to 100 scale), Foxtail, Giant: 0
[3]; 125 g ai/ha
  Plant response rating (0 to 100 scale), Foxtail, Giant: 0
[4]; 31 g ai/ha
  Plant response rating (0 to 100 scale), Pigweed: 0
[4]; 125 g ai/ha
  Plant response rating (0 to 100 scale), Pigweed: 40
[5]; 31 g ai/ha
  Plant response rating (0 to 100 scale), Ragweed: 20
[5]; 125 g ai/ha
  Plant response rating (0 to 100 scale), Ragweed: 0
[6]; 31 g ai/ha
  Plant response rating (0 to 100 scale), Ryegrass, It.: 0
[6]; 125 g ai/ha
  Plant response rating (0 to 100 scale), Ryegrass, It.: 60
[7]
  Ducksalad plant response rating (0 to 100 scale, 0 is no effect, 100 is complete control): 0
[8]
  Barnyardgrass plant response rating (0 to 100 scale, 0 is no effect, 100 is complete control): 0
[9]
  Rice plant response rating (0 to 100 scale, 0 is no effect, 100 is complete control): 0
[10]
  Sedge, Umbrella plant response rating (0 to 100 scale, 0 is no effect, 100 is complete control): 0
[11]; 31 g ai/ha
  Galium plant response rating: 60
[11]; 125 g ai/ha
  Galium plant response rating: 80
[12]; 31 g ai/ha
  Barnyardgrass plant response rating: 0
[12]; 125 g ai/ha
  Barnyardgrass plant response rating: 10
[13]; 31 g ai/ha
  Kochia plant response rating: 0
[13]; 125 g ai/ha
  Kochia plant response rating: 0
[14]; 31 g ai/ha
  Foxtail, Giant plant response rating: 0
[14]; 125 g ai/ha
  Foxtail, Giant plant response rating: 0
[15]; 31 g ai/ha
  Pigweed plant response rating: 30
[15]; 125 g ai/ha
  Pigweed plant response rating: 50
[16]; 31 g ai/ha
  Corn plant response rating: 0
[16]; 125 g ai/ha
  Corn plant response rating: 0
[17]; 31 g ai/ha
  Ragweed plant response rating: 0
[17]; 125 g ai/ha
  Ragweed plant response rating: 30
[18]; 31 g ai/ha
  Blackgrass plant response rating: 0
[18]; 125 g ai/ha
  Blackgrass plant response rating: 0
[19]; 31 g ai/ha
  Wheat plant response rating: 0
[19]; 125 g ai/ha
  Wheat plant response rating: 0
[20]; 31 g ai/ha
  Ryegrass, It. plant response rating: 10
[20]; 125 g ai/ha
  Ryegrass, It. plant response rating: 30

## CC(=O)Oc1c(C)nn(C)c(=O)c1-c1ccc(Cl)c2oc(C)cc12 [Compound 54]
[1]; 31 g ai/ha
  Plant response rating (0 to 100 scale), Barnyardgrass: 0
[1]; 125 g ai/ha
  Plant response rating (0 to 100 scale), Barnyardgrass: 0
[2]; 31 g ai/ha
  Plant response rating (0 to 100 scale), Kochia: 0
[2]; 125 g ai/ha
  Plant response rating (0 to 100 scale), Kochia: 0
[3]; 31 g ai/ha
  Plant response rating (0 to 100 scale), Foxtail, Giant: 0
[3]; 125 g ai/ha
  Plant response rating (0 to 100 scale), Foxtail, Giant: 0
[4]; 31 g ai/ha
  Plant response rating (0 to 100 scale), Pigweed: 0
[4]; 125 g ai/ha
  Plant response rating (0 to 100 scale), Pigweed: 20
[5]; 31 g ai/ha
  Plant response rating (0 to 100 scale), Ragweed: 0
[5]; 125 g ai/ha
  Plant response rating (0 to 100 scale), Ragweed: 10
[6]; 31 g ai/ha
  Plant response rating (0 to 100 scale), Ryegrass, It.: 30
[6]; 125 g ai/ha
  Plant response rating (0 to 100 scale), Ryegrass, It.: 50
[7]
  Ducksalad plant response rating (0 to 100 scale, 0 is no effect, 100 is complete control): 0
[8]
  Barnyardgrass plant response rating (0 to 100 scale, 0 is no effect, 100 is complete control): 0
[9]
  Rice plant response rating (0 to 100 scale, 0 is no effect, 100 is complete control): 0
[10]
  Sedge, Umbrella plant response rating (0 to 100 scale, 0 is no effect, 100 is complete control): 70
[11]; 31 g ai/ha
  Galium plant response rating: 50
[11]; 125 g ai/ha
  Galium plant response rating: 70
[12]; 31 g ai/ha
  Barnyardgrass plant response rating: 0
[12]; 125 g ai/ha
  Barnyardgrass plant response rating: 0
[13]; 31 g ai/ha
  Kochia plant response rating: 0
[13]; 125 g ai/ha
  Kochia plant response rating: 10
[14]; 31 g ai/ha
  Foxtail, Giant plant response rating: 0
[14]; 125 g ai/ha
  Foxtail, Giant plant response rating: 0
[15]; 31 g ai/ha
  Pigweed plant response rating: 30
[15]; 125 g ai/ha
  Pigweed plant response rating: 40
[16]; 31 g ai/ha
  Corn plant response rating: 0
[16]; 125 g ai/ha
  Corn plant response rating: 0
[17]; 31 g ai/ha
  Ragweed plant response rating: 0
[17]; 125 g ai/ha
  Ragweed plant response rating: 0
[18]; 31 g ai/ha
  Blackgrass plant response rating: 0
[18]; 125 g ai/ha
  Blackgrass plant response rating: 0
[19]; 31 g ai/ha
  Wheat plant response rating: 0
[19]; 125 g ai/ha
  Wheat plant response rating: 0
[20]; 31 g ai/ha
  Ryegrass, It. plant response rating: 20
[20]; 125 g ai/ha
  Ryegrass, It. plant response rating: 60
